US7718846B2, “Animal models of long QT syndrome and uses thereof” (priority 2005, dated 2010)

Legend:
[1] = test system: IKr; conditions: E4031 0.5 μM; cited from earlier work
[2] = test system: rabbit left ventricular wedge preparation; conditions: 100 μM
Description: Shown are floating microelectrode recordings from an M cell in the subendocardial region of the wedge preparation and an ECG recorded across the bath.
Rabbits weighing 2.5 3.5 kg may be anticoagulated with heparin and anesthetized with pentobarbital (30-35 mg/kg, i.v.). Transmural wedges with dimensions of approximately 2×1.5×0.9 cm to 3×2×1.5 cm may be dissected from the left ventricle. The tissue may be cannulated via a small (diameter ˜100 μm) native branch of the left descending coronary artery and perfused with cardioplegic solution. Unperfused tissue may be carefully removed using a razor blade. […] A transmural ECG may be recorded using electrodes consisting of AgCl half cells attached to Tyrode's-filled tapered polyethylene electrodes which will be placed in the Tyrode's solution bathing the preparation, 1.0 to 1.5 cm from the epicardial and endocardial surfaces of the preparation, along the same vector as the transmembrane recordings. […] Transmembrane action potentials may be simultaneously recorded from epicardial, M, and endocardial sites using three to four separate intracellular floating microelectrodes (DC resistance: 10 to 20 MΩ) filled with 2.7 M KCl and connected to a high-input impedance amplifier. […]

[3] = test system: WT rabbits; conditions: Carlsson rabbit model; cited from earlier work
[4] = test system: IKs; conditions: experimental models in dogs; cited from earlier work
[5] = test system: LQT2; conditions: cited from earlier work
[6] = test system: α1-adrenoreceptors; conditions: cited from earlier work
[7] = test system: α1-adrenoreceptor; conditions: infusion, patient with LQTS; cited from earlier work

SMILES: Cc1cccc(CCN2CCC(C(=O)c3ccc(NS(C)(=O)=O)cc3)CC2)n1 [E4031, Benzenesulfonamide E-4031]
- APD [1]: > 1 s
- apex-to-base dispersion of repolarization [1]: marked enhancement of the apex-to-base dispersion of repolarization with reversal of repolarization

SMILES: CC(C)NC[C@@H](O)c1ccc(NS(C)(=O)=O)cc1 [d-sotalol]
- Action potential duration at 90% repolarization (APD90) [2]: 427 ms
- QT interval [2]: 467 ms

SMILES: COc1cc2nc(N3CCN(C(=O)c4ccco4)CC3)nc(N)c2cc1OC [prazosin]
- suppression of arrhythmias by pretreatment [3]: as effective as pretreatment with propranolol in suppressing the arrhythmias

SMILES: CCS(=O)(=O)N(C)[C@H]1c2cc(C#N)ccc2OC(C)(C)[C@@H]1O (racemic) [chromanol 293B]
- TdP, spontaneous or in response to program stimulation [4]: never produced TdP

SMILES: CC(C)NCC(O)c1ccc(O)c(O)c1 (centres unmarked) [isoproterenol]
- duration of transient increase in TDR [5]: less than 2 minutes

SMILES: CC(C)NCC(O)COc1cccc2ccccc12 (centres unmarked) [propranolol]
- suppression of arrhythmias by pretreatment [3]: suppressing the arrhythmias

SMILES: COc1ccc(OC)c(C(O)C(C)N)c1 (centres unmarked) [methoxamine]
- APD90 in tissues from the M region ([6]; canine wedge preparations): abbreviation of APD90
- APD90 in Purkinje fibers ([6]; canine): dose- and rate-dependent prolongation of APD90
- QTc [7]: prolong the QTc
